Earlier results on one compound are cited in US20040259834A1, “Therapeutic composition containing at least diflomotecan and capecitabine” (priority 2003, published 2004).

For series [1], the system named is various xenografts. The following applies: various xenografts growing in nude mice.
The conditions of series [2]: 7-membered β-hydroxylactone ring, more stable lactone form.

Regarding `CC[C@@]1(O)CC(=O)OCc2c1cc1n(c2=O)Cc2cc3cc(F)c(F)cc3nc2-1` [Diflomotecan], the activity against xenografts result in series [1] is “excellent activity”. The plasma stability entry in series [2] is “greater plasma stability”.
